Results from paper PMC8208785, “Therapeutic efficacy of novel memantine nitrate MN‐08 in animal models of Alzheimer’s disease” (Aging Cell, 2021).
“Also recorded” adds a separate entry of the source.

Columns and labels:
[1] = test system: cerebellar granule neurons (CGNs); experiment: MTT cell viability, glutamate-induced excitotoxicity in CGNs; assay type: cell-based, rat; details: LY294002 incubated with MN‐08
Method: Excessive glutamate‐induced excitotoxicity might cause dysfunctions of cellular pathways, subsequently resulting in synaptic dysfunctions and neuronal loss. To evaluate the neuroprotective effects of MN‐08 against excitotoxicity, cerebellar granule neurons (CGNs) were treated with MN‐08 at the concentrations from 1 to 50 µM or memantine from 1 to 10 μM for 2 h, and then exposed to 100 μM glutamate for 24 h. […] Similarly, in APP/PS1 mice, MN‐08 prevented neuronal loss in the hippocampus by upregulating the expression ratio of Bcl‐2/Bax and downregulating the expression ratio of cleaved Caspase‐3 to Caspase‐3 (Figure S6).
CGNs were prepared from the 8-day-old Sprague–Dawley rats as described in our previous publication (Li et al., 2005). Briefly, animals were anesthetized and sacrificed, and their cerebella were collected. […]
Neurotoxicity was assessed using the tetrazolium salt 3-(4,5-dimethylthiazol-2-yl)-2,5- diphenyltetrazolium bromide dye (MTT) assay as previous publication (Luo et al., 2010). […] Cell viability was evaluated by observing colorimetric changes using a CLARIOstar plus Microplate Reader (BMG Labtech, Ortenberg, Germany) at a test wavelength of 570 nm with 655 nm as a reference wavelength. Data were expressed as a percentage of control cultures.

[2] = test system: ERK and PI3K/Akt/GSK3β pathway; experiment: Western blotting of p-ERK, p-Akt, p-GSK3β and Bcl-2 in glutamate-challenged CGNs; assay type: cell-based, rat; details: LY294002 incubated with MN‐08
Source text: To further characterize the neuroprotection of MN‐08, the level of the key signaling molecules, such as ERK, Akt, and GSK3β, was examined by Western blotting assay. […] Moreover, pre‐treatment with MN‐08 reversed expression of both p‐Akt and p‐GSK3β with the challenge of glutamate. Akt is an important downstream member of PI3K. To further confirm whether the PI3K/Akt pathway was associated with the neuroprotection of MN‐08 against glutamate‐induced excitotoxicity, specific PI3K inhibitor LY294002 was applied and incubated with MN‐08. […] Taken together, MN‐08 might protect against glutamate‐induce cytotoxicity by reversing the dysregulations of ERK pathway and PI3K/Akt/GSK3β pathway.
Western blotting analysis was performed as previously described with minor modifications (Huang, Li, & Nan, 2017). Proteins were extracted from hippocampal tissue and their concentrations determined by the BCA protein assay kit (Fdbio science, Hangzhou, China). The protein (20 μg) was separated on a 12% SDS-PAGE gel and then transferred to PVDF membranes. The membranes were blocked using 5 % nonfat dry milk for 2 h. The protein blots were incubated with the corresponding primary antibodies against p-Akt (#4060, 1:1000, Cell Signaling Technology), Akt (#4685, 1:1000, Cell Signaling Technology), BACE1 (#5606, 1:1000, Cell Signaling Technology), PS1 (#5643, 1:1000, Cell Signaling Technology), p-GSK3β (#5558, 1:1000, Cell Signaling Technology), GSK3β (#12456, 1:1000, Cell Signaling Technology), Bcl-2 (#3498, 1:1000, Cell Signaling Technology), Bax (#5023, 1:1000, Cell Signaling Technology), Cleaved caspase-3 (#9661, 1:1000, Cell Signaling Technology), Caspase-3 (#9662, 1:1000, Cell Signaling Technology), ADAM10 (#14194, 1:1000, Cell Signaling Technology), APP (#ab241592, 1:1000, Abcam), sAPPα (#ab126723, 1:1000, Abcam), NEP (#ab216341, 1:1000, Abcam), Synapsin I (#ab64581, 1:1000, Abcam), Synapsin II (#ab76494, 1:1000, Abcam), NR2A (#ab124913, 1:2000, Abcam), PSD95 (#ab18258, 1:1000, Abcam), Synaptophysin (#ab32127, 1:1000, Abcam), IDE (#ab133561, 1:1000, Abcam), Drebin (#ab178408, 1:1000, Abcam) and Tau-5 (#ab80579, 1:2000, Abcam) overnight at 4°C. After washing 3 times, the membranes were incubated with the respective HRP-conjugated secondary antibody. ECL Western blotting Detection Reagents (Fdbio science, Hangzhou, China) were used to perform Chemiluminescence detection. Quantitative analysis of protein bands was conducted by the Carestream system (Carestream Health, Inc, USA).
CGNs were prepared from the 8-day-old Sprague–Dawley rats as described in our previous publication (Li et al., 2005). Briefly, animals were anesthetized and sacrificed, and their cerebella were collected. Then, the freshly collected cerebella were rinsed in cold Kreb’s buffer-BSA and digested with 0.025 % trypsin incubated in a 37°C for 15 min. The reaction was stopped, and the single cell suspension was obtained through pipetting up and down the sedimentary tissue. CGNs were seeded in basal modified Eagle’s medium (ThermoFisher Scientific, Waltham, MA, USA) supplemented with 10 % fetal bovine serum, 25 mM KCl, 2 mM glutamine and 100 units/mL penicillin/streptomycin at a density of 1.5×10^6 cells/mL. Cytosine arabinoside (10 μM) was added to inhibit the growth of non-neuronal cells at 24 h after seeding. All experiments were carried out after 8 days in vitro. […]

[3] = test system: 3×Tg‐AD mice; experiment: Golgi staining of dendritic spines and Western blotting of synaptic markers in 3×Tg-AD mice; assay type: in vivo; details: donepezil 1.3 mg/kg
Method: Triple transgenic 3×Tg‐AD mice were acquired from Jackson Laboratory and fostered in the Shenzhen Center for Disease Control and Prevention (Shenzhen, China). Eight‐month‐old 3×Tg‐AD mice were categorized into six groups: (1) 3×Tg‐AD +Vehicle group; (2) 3×Tg‐AD +MN‐08 (3 mg/kg) group; (3) 3×Tg‐AD +MN‐08 (6 mg/kg) group; (4) 3×Tg‐AD +MN‐08 (12 mg/kg) group; (5) 3×Tg‐AD +Memantine (Mem, 5 mg/kg) group; (6) 3×Tg‐AD +Donepezil (Done, 1.3 mg/kg, once daily) group; (7) Eight‐month‐old B6129SF2/J mice as a control group. MN‐08 and memantine were given twice daily (Done, once daily) by gastric gavage for 4 months from 8 months of age.
Golgi staining was used to determine hippocampal dendritic spine density by a Rapid Golgi Stain Kit (FD Neurotechnologies, Columbia, MD, USA) according to the manufacturer’s instructions. The brain was removed after the behavioral tests and incubated with impregnation solution in the dark at room temperature for 1 week. Impregnation solution was replaced with solution A and stored in the dark for 3 days. Brain sections (100 μm thickness) were placed on gelatin-coated microscope slides and then immersed in ddH2O. Solution B, Solution C, 80 % ethanol and xylene were used for 10 min, sequentially. The dendritic spines of hippocampal neurons were analyzed and counted in a blinded manner from six sections per animal by light microscopy (Olympus, Tokyo, Japan).
Western blotting analysis was performed as previously described with minor modifications (Huang, Li, & Nan, 2017). Proteins were extracted from hippocampal tissue and their concentrations determined by the BCA protein assay kit (Fdbio science, Hangzhou, China). The protein (20 μg) was separated on a 12% SDS-PAGE gel and then transferred to PVDF membranes. The membranes were blocked using 5 % nonfat dry milk for 2 h. […] Quantitative analysis of protein bands was conducted by the Carestream system (Carestream Health, Inc, USA).

Row | SMILES | effect of LY294002 on the neuroprotective effects of MN‐08 against glutamate (MTT) [1] | effect of LY294002 on upregulation of p‐Akt and p‐GSK3β by MN‐08 [2] | reduction of dendritic spines (hippocampus CA1, Golgi staining) [3]
1 | O=c1cc(N2CCOCC2)oc2c(-c3ccccc3)cccc12 [LY294002] | canceled; also recorded: partially abolished | significantly abolished | 
2 | COc1cc2c(cc1OC)C(=O)C(CC1CCN(Cc3ccccc3)CC1)C2 (stereo not drawn) [donepezil, reference compound] |  |  | markedly reversed
